Assay results from patent US20070009484A1, “Compositions and methods involving MDA-7 for the treatment of cancer” (Board of Regents, The University of Texas System, priority 2005, published 2007).
Marks after values point to notes of the source that are not given here. Peptide text beside a SMILES is read from it. * marks the point of attachment. Cbz = O=C(OCc1ccccc1)*; CH2F = FC*

Experiments:
MDA-MB453 cells = assay: Cell viability by trypan blue exclusion assay; assay type: cell-based, human; conditions: for cell death (cytotoxicity) by cytokine protein: 30 ng/ml, 96 h
Experimental: (§1) MDA-MB231 and MDA-MB453 breast cancer lines were obtained from the America Type Culture Collection (ATCC, Manassas, Va.) and were maintained in DMEM (Hyclone, Inc., Logan, Utah) supplemented with 10% fetal bovine serum (Life Technologies, Inc.), 100 units/ml penicillin, 100 μg/ml streptomycin, 2 mM L-glutamine, and HEPES buffer (Life Technologies, Inc., Grand Island, N.Y.). The cells were screened routinely to verify lack of mycoplasma contamination and were used in the log phase of growth. […] Rabbit phospho-Stat3 (Tyr705) antibody was purchased from Cell Signaling Technology Inc. (Beverly, Mass.), β-Actin monoclonal antibody and terminal deoxynucleotidyl transferase-mediated dUTP-biotin nick-end labeling (TUNEL) kits were purchased from Oncogene Research Products (San Diego, Calif.), and all other primary and secondary antibodies were purchased from Santa Cruz Biotechnology (Santa Cruz, Calif.). Cell viability was analyzed by trypan blue exclusion assay. Cells were trypsinized and an aliquot suspended 1:1 volume with 0.4% trypan blue.
(§2) Full-length mda-7 cDNA was cloned into pCEP4 FLAG vector (Invitrogen, San Diego, Calif.) containing the CMV promoter. The plasmid was transfected into HEK 293 cells, and stable sub-clones were isolated using hygromycin (0.4 μg/ml).
(§3) The mda-7 gene was linked to an internal CMV-IE promoter, followed by an SV40 polyadenylation sequence. The same adenoviral vector containing the sequence for expression of luciferase (Ad-luc) was used as control virus. Cells were plated 1 day before infection.

MDA-MB231 cells = assay: Cell viability by trypan blue exclusion assay; assay type: cell-based, human; conditions: for cell death (cytotoxicity) by cytokine protein: 30 ng/ml, 96 h
Experimental: as §1, §2, §3

[1] = test system: H460 human lung cancer cells; assay: Flow cytometry analysis of apoptosis (propidium iodide); assay type: cell-based; conditions: for percentage of apoptosis: 48 hrs
Experimental: (§4) Apoptosis of cells was measured by propidium iodide staining and FACS analysis. Cells were harvested, pelleted by centrifugation and resuspended in phosphate-buffered saline containing 50 μg/ml propidium iodide, 0.1% Triton X-100, and 0.1% sodium citrate and vortexed prior to FACS analysis (Becton-Dickenson FACScan, Mountain View, Calif.; FL-3 channel).

[2] = test system: A549 human lung cancer cells; assay: as above; assay type: cell-based; conditions: for percentage of apoptosis: 48 hrs
Experimental: as §4

STAT3 = assay: Phospho-STAT3 immunofluorescence assay; assay type: cell-based, human; conditions: MDA-MB231 and MDA-MB453 cells
Experimental: Cells growing in chamber slides were treated with human IL-24 protein in various concentrations (0-20 ng/ml) for 30 min. Cells were fixed with ethanol:acetic acid (9.5:0.5) and then stained with phospho-Stat3 primary antibody and FITC-labeled secondary antibody. The slides were analyzed using a Nikon fluorescence microscope.

MCF-7 cells = assay: 3H-thymidine cell proliferation assay; assay type: cell-based, human; conditions: Taxotere 0.5-2 ng/mL, 3 days
Experimental: (§8) Cells were plated at 500-2000 cells/well in 96-well format for ^3H-thymidine incorporation-assays, or at 10^5-10^6 cells/well in a 6-well plate format for protein expression, trypan blue viability or apoptosis assays. In drug combination studies, drugs were added once just prior to addition of vectors and cells were continuously exposed to agents.
(§9) The cells were harvested using Trypsin/EDTA (GIBCO), collected on a Filter using a Packard Filtermate cell Harvester, and washed in deionized water and methanol following the manufacturer protocols. The filters were dried and analyzed using a Matrix 9600 (Packard).

T47D cells [3] = assay: 3H-thymidine cell proliferation assay; assay type: cell-based, human; conditions: Taxotere 0.5-2 ng/mL, 3 days
Experimental: as §8, §9

[4] = test system: H1299 tumors in nude mice; assay: Subcutaneous H1299 xenograft; assay type: in vivo, mouse; conditions: vector 1×10^10 vp intratumorally, Avastin 5 mg/Kg (100 ug/body) i.p., twice a week, 28 days
Experimental: Bivacizumab (100 ug/body) was given i.p. twice a week. Animals were weighed weekly and tumor growth was measured thrice a week as described previously (Saeki et al., 2002; Ramesh et al., 2003). At 28 days after the first treatment, all animals were killed via CO2 inhalation, and tumors were collected for histopathological examination and Western blot analysis. Two different sets of experiments were done.

HUVECs [5] = assay: Endothelial cell proliferation with conditioned medium from treated H1299 cells; assay type: cell-based, human; conditions: medium collected at 48 h; compared to PBS and Ad-luc
Experimental: For analysis of the effect of conditioned medium from Ad-mda7-treated H1299 on endothelial cell proliferation, human umbilical vein endothelial cells (HUVECs) were seeded in six-well plates (3×10^5 cells/well). […] HUVECs were incubated for an additional 3 days and later harvested and subjected to cell viability assay (Ramesh et al., 2003; Mhashilkar et al., 2001).

HUVECs [6] = assay: Cell viability assay (trypan blue exclusion); assay type: cell-based, human; conditions: Ad-mda7 1000 vp/cell; Bivacizumab 0.78, 1.56, 3,125 ug/ml; 48 h and 72 h
Experimental: (§5) H1299 cells (2×10^5/well) and HUVECs (3×10^5/well) were seeded in six-well plates. […] At 48 hours and […] after the treatment, cells were trypsinized and analyzed for trypan blue cell exclusion assay.

H1299 cells = assay: Cell viability assay (trypan blue exclusion); assay type: cell-based; conditions: Ad-mda7 1000 vp/cell; Bivacizumab 0.78, 1.56, 3,125 ug/ml; up to 72 hours
Experimental: Cells treated with PBS served as a control. Cells were harvested at various time points as listed in figures and subjected to cell viability assay as previously described (Saeki et al., 2000).
as §5

[7] = cited from earlier work
T47D cells [8] = assay: Annexin V apoptosis assay; assay type: cell-based, human; conditions: T47D cells treated with Ad-mda7 2000 vp/cell
Experimental: Apoptosis was measured by TUNEL and Annexin V assays. […] Cell viability was determined by trypan-blue exclusion assay.

MDA-MB-436 cells [9] = assay: Prostaglandin E2 (PGE2) measurement; assay type: cell-based, human; conditions: 72-hour treatment, vectors MOI 1000 vp/cell, celecoxib 50 uM
Experimental: (§6) After a 72-hr incubation, 3 μl of arachidonic acid (1 mM) was added to the culture media to boost the PGE2 production for 30 minutes. The supernatant was collected and stored at −80° C. until PGE2 concentration was measured using an enzyme-linked immunoassay kit (Cayman Chemical, Ann Arbor, Mich.) according to the manufacturer's manual. The final results from the triplicated values were expressed as pg/ml.

MCF7/Her18 cells [10] = assay: Prostaglandin E2 (PGE2) measurement; assay type: cell-based, human; conditions: 72-hour treatment, vectors MOI 2000 vp/cell, celecoxib 20 uM
Experimental: as §6

MDA-MB-436 cells [11] = assay: Cell cycle and apoptosis assay (PI, Annexin V/FITC, TUNEL); assay type: cell-based, human
Excerpt: (§7) All the cultures were subconfluent at the time of harvest. Harvested cells were fixed with ice-cold 80% ethanol, stained with propidium iodide (PI) (Sigma, St. Louis, Mo.), and analyzed using a flow cytometer (FCM) (EPICS XL-MCL, Coulter, Miami, Fla.) as described previously. Cells floating in the media and trypsinized adherent cells were harvested and pelleted. The collected cells were washed, and then stained with Annexin V-fluorescein isothiocyanate (FITC)/PI using an Annexin V/FITC apoptosis detection kit (BD Biosciences, Franklin Lake, N.J.). The BrdU (5-bromo-2-deoxyuridine)/terminal deoxynucleotidyl transferase (TdT)-mediated 2′-deoxyuridine 5′-triphosphate (dUTP)-biotin nick end labeling (TUNEL) assay (APO-Direct, BD Biosciences, Franklin Lake, N.J.) was performed according to the manufacturer's protocol. Briefly, paraformaldehyde-fixed cells were washed and incubated with staining solution (10 μl of TdT reaction buffer, 0.75 μl of TdT enzyme, and 8 μl of FITC-dUTP) overnight. The following day, cells were rinsed and resuspended in 1 ml of PI/RNase solution. Following incubation in the dark for 30 minutes at room temperature, flow cytometry was performed to obtain the percentage of apoptotic cells. Cell cycles were analyzed with a program combined with the FCM (Multicycle, Phoenix Flow System, San Diego, Calif.).

MCF7/Her18 cells [12] = assay: as above; assay type: cell-based, human
Excerpt: as §7

[13] = 48 h, two doses of 17AAG, combination compared with Ad-luc and 17AAG
[14] = 30 ng/ml IL-24 with IL-10 0-300 ng/ml

IL-22: IL-10 family cytokine
cell death (cytotoxicity) by cytokine protein (MDA-MB453 cells): none of these induced cell death above background levels
cell death (cytotoxicity) by cytokine protein (MDA-MB231 cells): none of these induced cell death above background levels

C=CCNC1=C2C[C@@H](C)C[C@H](OC)[C@H](O)[C@@H](C)/C=C(\C)[C@H](OC(N)=O)[C@@H](OC)/C=C\C=C(/C)C(=O)NC(=CC1=O)C2=O [17AAG, 17-allyl-aminogeldanamycin]
cell death / apoptosis with 17AAG [1, 13]: resulted in cell death
cell death / apoptosis with 17AAG [2, 13]: resulted in cell death

IL-10: recombinant IL-10
effect on IL-24-protein-induced killing (MDA-MB453 cells; [14]): significantly inhibited IL-24-protein-induced killing in a dose-dependent manner
cell death (cytotoxicity) by cytokine protein (MDA-MB453 cells): none of these induced cell death above background levels
effect on IL-24-protein-induced killing (MDA-MB231 cells; [14]): significantly inhibited IL-24-protein-induced killing in a dose-dependent manner
cell death (cytotoxicity) by cytokine protein (MDA-MB231 cells): none of these induced cell death above background levels
STAT3 activation (phospho-STAT3) (STAT3): able to activate STAT3

CC(=O)O[C@@]12CO[C@@H]1C[C@H](O)[C@@]1(C)C(=O)[C@H](O)C3=C(C)[C@@H](OC(=O)[C@H](O)[C@@H](NC(=O)OC(C)(C)C)c4ccccc4)C[C@@](O)([C@@H](OC(=O)c4ccccc4)[C@H]21)C3(C)C [Taxotere, docetaxel]
inhibition of thymidine incorporation (MCF-7 cells): approximately 40%
inhibition of thymidine incorporation (T47D cells [3]): approximately 40%

Bevacizumab: VEGF inhibitor, monoclonal antibody that specifically binds VEGF
tumor growth [4]: Significant inhibition of tumor growth
HUVEC proliferation with conditioned medium from treated H1299 cells (HUVECs [5]): significantly inhibited HUVEC proliferation
cell viability / toxicity (HUVECs [6]): inhibited HUVEC viability
cell viability / toxicity (H1299 cells): did not show harmful effect

Cc1onc(-c2ccccc2)c1-c1ccc(S(N)(=O)=O)cc1 [valdecoxib, 4-(5-methyl-3-phenyl-4-isoxazolyl)benzenesulfonamide]
active metabolite concentration in human plasma relative to parent ([7]; human plasma): about 10%
time of peak plasma levels after an oral dose ([7]; in vivo): about 3 hours
delay of plasma levels with a high fat meal ([7]; in vivo): 1 to 2 h

COC1=C2C[C@@H](C)C[C@H](OC)[C@H](O)[C@@H](C)/C=C(\C)[C@H](OC(N)=O)[C@@H](OC)/C=C\C=C(/C)C(=O)NC(=CC1=O)C2=O [GA, Geldanamycin]
percentage of apoptosis ([1]; GA 50 nm): 5.7%
percentage of apoptosis ([1]; GA 150 nm): 21%
percentage of apoptosis ([2]; GA 50 nm): 6.3%
percentage of apoptosis ([2]; GA 150 nm): 23.6%

CS(=O)(=O)c1ccc(C2=C(c3ccccc3)C(=O)OC2)cc1 [rofecoxib, 4-[4-(methylsulfonyl)phenyl]-3-phenyl-2-(5H)furanone]
time of peak plasma levels after an oral dose ([7]; in vivo): 2 to 3 h
delay of plasma levels with a high fat meal ([7]; in vivo): 1 to 2 h

COC(=O)C[C@H](NC(=O)[C@H](C)NC(=O)[C@@H](NC(=O)OCc1ccccc1)C(C)C)C(=O)CF [ZVAD] (Cbz-Val-Ala-Asp(OMe)-CH2F)
reduction of Ad-mda7 induced apoptosis (T47D cells [8]): 40%

Cc1ccc(-c2cc(C(F)(F)F)nn2-c2ccc(S(N)(=O)=O)cc2)cc1 [Celecoxib, 4-[5-(4-methylphenyl)-3-(trifluoromethyl)-1H-pyrazol-1-yl]benzenesulfonamide]
Prostaglandin E2 production (MDA-MB-436 cells [9]): 116.7^§ pg/ml
Prostaglandin E2 production (MCF7/Her18 cells [10]): 16.7^§ pg/ml
cell cycle effect (MDA-MB-436 cells [11]; 72-hour treatment): blocked more cells at the G1 checkpoint than Ad-mda7
apoptosis (Annexin V/FITC, TUNEL) (MDA-MB-436 cells [11]; 72-hr treatment): promoted apoptosis
cell cycle effect (MCF7/Her18 cells [12]; 72-hour treatment): blocked more cells at the G1 checkpoint than Ad-mda7
apoptosis (Annexin V/FITC, TUNEL) (MCF7/Her18 cells [12]; 72-hr treatment): promoted apoptosis
effective half-life ([7]; fasted conditions): roughly 11 hours
time of peak plasma levels after an oral dose ([7]; in vivo): roughly 3 hours
delay of plasma levels with a high fat meal ([7]; in vivo): 1 to 2 h
increase in total absorption with a high fat meal ([7]; in vivo): 10-20%
dose excreted in feces ([7]; single dose): 57%
dose excreted in the urine ([7]; single dose): 27%

B1: IL-19: IL-10 family cytokine (protein, UniProt Q9UHD0 25-177, looked up)
Interleukin-19: LRRCLISTDMHHIEESFQEIKRAIQAKDTFPNVTILSTLETLQIIKPLDVCCVTKNLLAFYVDRVFKDHQEPNPKILRKISSIANSFLYMQKTLRQCQEQRQCHCRQEATNATRVIHDNYDQLEVHAAAIKSLGELDVFLAWINKNHEVMFSA
cell death (cytotoxicity) by cytokine protein (MDA-MB453 cells): none of these induced cell death above background levels
cell death (cytotoxicity) by cytokine protein (MDA-MB231 cells): none of these induced cell death above background levels

B2: IL-24: purified human IL-24 (MDA-7) protein from 293-IL24 cell supernatant (protein)
chain: QEFHFGPCQVKGVVPQKLWEAFWAVKDTMQAQDNITSARLLQQEVLQNVSDAESCYLVHTLLEFYLKTVFKNYHNRTVEVRTLKSFSTLANNFVLIVSQLQPSQENEMFSIRDSAHRRFLLFRRAFKQLDVEAALTKALGEVDILLTWMQKFYKL
cell death (cytotoxicity) by cytokine protein (MDA-MB453 cells): induction of significant cell death
cell death (cytotoxicity) by cytokine protein (MDA-MB231 cells): induction of significant cell death
STAT3 activation (phospho-STAT3) (STAT3): able to activate STAT3
